In the supplement of paper PMC10307832 one finds relative viability data, which are given here for one cell line.

Assay in all cases: relative viability (nuclei count vs DMSO), 5 days (fraction); higher = more cells survive
Compound in test [1]: C(C(=O)C(=O)O)Br [Bromopyruvate] + Cc1cc(Nc2cc(N3CCN(C)CC3)nc(Sc3ccc(NC(=O)C4CC4)cc3)n2)n[nH]1 [Tozasertib] (partner 0.1 µM)
The method in brief: (§1)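 Values are medians from duplicate plates. Each reflects relative viability, defined as the nuclei count of treated wells over that of vehicle wells. Lung cancer cell lines in 1536-well plates were pin-tool dosed one day after seeding with one drug alone or with a fixed anchor-drug dose plus five library-drug doses (not always all listed) in √10 steps, then fixed, stained and imaged at 4× after 5 days.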

Compound in test [2]: CC(O)(CS(=O)(=O)c1ccc(F)cc1)C(=O)Nc1ccc(C#N)c(C(F)(F)F)c1 [Bicalutamide] + CC(C)C[C@H](NC(=O)[C@H](Cc1ccccc1)NC(=O)c1cnccn1)B(O)O [Bortezomib] (partner 0.002 µM)
In a few lines:
as §1

Compound in the test “Bicalutamide + Dasatinib”: CC(O)(CS(=O)(=O)c1ccc(F)cc1)C(=O)Nc1ccc(C#N)c(C(F)(F)F)c1 [Bicalutamide] + Cc1nc(Nc2ncc(C(=O)Nc3c(C)cccc3Cl)s2)cc(N2CCN(CCO)CC2)n1 [Dasatinib] (partner 0.075 µM)
The method in brief: as §1

Compound in the test “Bicalutamide + Olaparib”: CC(O)(CS(=O)(=O)c1ccc(F)cc1)C(=O)Nc1ccc(C#N)c(C(F)(F)F)c1 [Bicalutamide] + O=C(c1cc(Cc2n[nH]c(=O)c3ccccc23)ccc1F)N1CCN(C(=O)C2CC2)CC1 [Olaparib] (partner 8 µM)
The method in brief: as §1

On to UMC-11, for which the relative viability in test [1] (first compound 1 µM) was 0.201; in test [1] (first compound 3.162 µM), 0.196; in test [1] (first compound 10 µM), 0.188; in test [1] (first compound 31.62 µM), 0.208; in test [1] (first compound 100 µM), 0.213; in test [2] (first compound 0.08 µM), 0.758. In addition, the relative viability was determined as 0.67 in test [2] (first compound 0.253 µM); 0.762 in test [2] (first compound 0.8 µM); 0.596 in test [2] (first compound 2.53 µM); 0.523 in the test with Bicalutamide + Dasatinib (first compound 0.08 µM); 0.399 in the test with Bicalutamide + Dasatinib (first compound 0.253 µM); 0.576 with Bicalutamide + Dasatinib (first compound 0.8 µM). In addition, the relative viability with Bicalutamide + Dasatinib (first compound 2.53 µM) amounted to 0.431; with Bicalutamide + Olaparib (first compound 0.08 µM), 0.386; with Bicalutamide + Olaparib (first compound 0.253 µM), 0.347; with Bicalutamide + Olaparib (first compound 0.8 µM) it was 0.406; with Bicalutamide + Olaparib (first compound 2.53 µM) it was 0.522.
